Consider 18 compounds from ChEMBL document CHEMBL4823255, “Discovery of novel potent migrastatic Thiazolo[5,4-b]pyridines targeting Lysyl-tRNA synthetase (KRS) for treatment of Cancer metastasis” (Eur J Med Chem, 2021).

One series has as its target T1, CYP1A2 (Homo sapiens, UniProt P05177).
T1 sequence (P05177 whole entry): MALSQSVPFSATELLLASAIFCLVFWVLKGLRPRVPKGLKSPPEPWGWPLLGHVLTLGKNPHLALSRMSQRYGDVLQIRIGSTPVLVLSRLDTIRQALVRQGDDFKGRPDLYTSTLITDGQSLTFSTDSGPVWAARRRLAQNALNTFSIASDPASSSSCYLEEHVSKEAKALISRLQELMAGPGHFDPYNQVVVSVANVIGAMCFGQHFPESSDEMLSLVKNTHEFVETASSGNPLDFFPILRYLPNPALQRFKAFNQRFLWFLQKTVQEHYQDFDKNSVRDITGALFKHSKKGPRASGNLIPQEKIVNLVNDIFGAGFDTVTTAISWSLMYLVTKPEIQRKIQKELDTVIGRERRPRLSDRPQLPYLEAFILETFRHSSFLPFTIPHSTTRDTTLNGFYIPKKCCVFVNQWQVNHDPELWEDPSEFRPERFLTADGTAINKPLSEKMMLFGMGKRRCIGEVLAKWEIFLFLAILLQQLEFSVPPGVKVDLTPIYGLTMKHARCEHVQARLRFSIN
The series can be described thus: Inhibition of CYP1A2 (unknown origin) assessed as enzyme residual activity at 10 uM. It is filed as ADME. The conditions noted are these: read-out: Activity.

For another series, the target named is CYP2C9 (Homo sapiens, UniProt P11712). Nature of the series: Inhibition of CYP2C9 (unknown origin) assessed as enzyme residual activity at 10 uM. Type of series: ADME. To be noted: read-out: Activity.
For a further series, the target named is CYP3A4 (Homo sapiens, UniProt P08684). Nature of the series: Inhibition of CYP3A4 (unknown origin) assessed as enzyme residual activity at 10 uM. Type of series: ADME. To be noted: read-out: Activity.
A further series has as its target CYP2C19 (Homo sapiens, UniProt P33261). Nature of the series: Inhibition of CYP2C19 (unknown origin) assessed as enzyme residual activity at 10 uM. It is filed as ADME. The conditions noted are these: read-out: Activity.
Series [1] has as its system MDA-MB-231. The series can be described thus: Antimigratory activity against tetracycline-induced KRS T52D mutant overexpressing human MDA-MB-231 cells assessed as inhibition of cell migration at 3 uM measured after 4 hrs by flourescence plate reader method. It is filed as functional.
Series [2] is described as follows: Permeability of the compound at 50 uM measured after 4 hrs by PAMPA assay. Type of series: ADME. The conditions noted are these: read-out: permeability. (In general: The PAMPA barrier holds no transporters, so it reflects passive diffusion.)
Another series has as its system NCI-H226. Nature of the series: Antimigratory activity against human NCI-H226 cells assessed as inhibition of cell migration measured after 12 hrs by Transwell assay. It is filed as functional, cell-based. To be noted: NCI-H226, 12 h.
Series [3] addresses T2, Lysine--tRNA ligase (Homo sapiens, UniProt Q15046). The series can be described thus: Binding affinity to human N-terminal His6-tagged 15N-labelled KRS (1 to 207 residues) expressed in Escherichia coli BL21(DE3) measured by flourescence based binding titration assay.
Target sequence in this assay (Q15046 whole entry, the tested form may be a part): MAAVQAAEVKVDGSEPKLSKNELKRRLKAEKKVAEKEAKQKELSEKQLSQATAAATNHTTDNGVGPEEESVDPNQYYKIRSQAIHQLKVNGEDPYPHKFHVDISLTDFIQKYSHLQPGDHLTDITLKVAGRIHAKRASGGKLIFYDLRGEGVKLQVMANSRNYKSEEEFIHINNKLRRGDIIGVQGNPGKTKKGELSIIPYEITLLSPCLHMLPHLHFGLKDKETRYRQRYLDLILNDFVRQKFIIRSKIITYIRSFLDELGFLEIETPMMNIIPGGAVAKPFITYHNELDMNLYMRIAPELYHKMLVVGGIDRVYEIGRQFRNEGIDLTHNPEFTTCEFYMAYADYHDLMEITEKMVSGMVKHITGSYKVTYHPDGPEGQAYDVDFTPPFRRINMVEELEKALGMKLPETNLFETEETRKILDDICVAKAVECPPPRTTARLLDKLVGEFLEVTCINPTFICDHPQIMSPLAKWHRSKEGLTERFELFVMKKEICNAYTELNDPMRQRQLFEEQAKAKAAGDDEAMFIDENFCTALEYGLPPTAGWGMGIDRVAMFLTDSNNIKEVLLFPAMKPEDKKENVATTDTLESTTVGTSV
Series [4] addresses T2, Lysine--tRNA ligase. The series can be described thus: Binding affinity to human N-terminal His6-tagged 15N-labelled KRS (1 to 207 residues) expressed in Escherichia coli BL21(DE3) at 0.4 mM by 1H-15N TROSY NMR analysis.
Target sequence in this assay (Q15046 2-597 limits assumed): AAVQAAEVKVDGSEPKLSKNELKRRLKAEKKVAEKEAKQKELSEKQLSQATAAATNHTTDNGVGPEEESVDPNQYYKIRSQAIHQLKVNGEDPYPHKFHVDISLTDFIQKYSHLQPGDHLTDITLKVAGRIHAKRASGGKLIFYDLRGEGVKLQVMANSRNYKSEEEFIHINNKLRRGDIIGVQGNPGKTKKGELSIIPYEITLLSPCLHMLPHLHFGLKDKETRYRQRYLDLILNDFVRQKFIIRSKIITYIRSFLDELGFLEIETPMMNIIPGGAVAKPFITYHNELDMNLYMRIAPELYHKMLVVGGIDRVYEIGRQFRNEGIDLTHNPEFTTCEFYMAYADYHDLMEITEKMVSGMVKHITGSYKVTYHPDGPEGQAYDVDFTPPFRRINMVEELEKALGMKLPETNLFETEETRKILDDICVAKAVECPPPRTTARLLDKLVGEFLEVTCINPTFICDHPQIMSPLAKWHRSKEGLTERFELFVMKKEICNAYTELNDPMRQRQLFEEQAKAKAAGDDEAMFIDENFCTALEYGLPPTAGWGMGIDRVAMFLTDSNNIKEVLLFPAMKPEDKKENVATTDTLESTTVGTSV
The nature of series [5]: Half life in mouse at 5 mg/kg, po measured after 24 hrs. Type of series: ADME, organism-based. To be noted: in vivo.
The nature of series [6]: Cmax in mouse at 5 mg/kg, po measured after 24 hrs. Type of series: ADME, organism-based. Further details: route oral, dose 5 mg/kg, time 24 hrs. The conditions noted are these: in vivo.
The nature of series [7]: AUC(infinity) in mouse at 5 mg/kg, po measured after 24 hrs. Further details: route oral, dose 5 mg/kg, time 24 hrs. The conditions noted are these: in vivo. Type of series: ADME, organism-based.
Series [8] in a line: Metabolic stability in dog liver microsomes assessed as parent compound remaining measured after 30 mins. The conditions noted are these: read-out: Stabilty. Type of series: ADME, Canis lupus familiaris, Microsome.
Series [9] can be described thus: AUC(t) in mouse at 5 mg/kg, iv measured after 24 hrs. Type of series: ADME, organism-based. Also noted: route intravenous, dose 5 mg/kg, time 24 hrs. The conditions noted are these: in vivo.
A short description of series [10]: Volume of distribution at steady state in mouse at 5 mg/kg, iv measured after 24 hrs. Type of series: ADME, organism-based. The conditions noted are these: in vivo, read-out: Vdss.
Series [11] is described as follows: Metabolic stability in rat liver microsomes assessed as parent compound remaining measured after 30 mins. It is filed as ADME, Microsome. To be noted: read-out: Stabilty. On the technique in general: Liver microsomes are a subcellular fraction often used to study metabolism.
The nature of series [12]: Toxicity in Balb/cAnCr mouse xenografted with mouse 4T1 cells assessed as change in body weight at 100 mg/kg, po administered for 16 days. It is filed as organism-based. To be noted: in vivo, 384 h, time 16 day.
A short description of series [13]: Metabolic stability in human liver microsomes assessed as parent compound remaining measured after 30 mins. It is filed as ADME, Microsome. The conditions noted are these: read-out: Stabilty.
In series [14] the test system is MDA-MB-231. The series can be described thus: Antimigratory activity against tetracycline-induced KRS T52D mutant overexpressing human MDA-MB-231 cells assessed as inhibition of cell migration measured after 4 hrs by flourescence plate reader method. Type of series: functional, cell-based. To be noted: MDA-MB-231, 4 h.
Series [15] in a line: Tmax in mouse at 5 mg/kg, po measured after 24 hrs. Type of series: ADME, organism-based. To be noted: in vivo.
The target of another series is CYP2D6 (Homo sapiens, UniProt P10635). The series can be described thus: Inhibition of CYP2D6 (unknown origin) assessed as enzyme residual activity at 10 uM. It is filed as ADME. To be noted: read-out: Activity.
Series [16] is described as follows: Oral bioavailability in mouse at 5 mg/kg measured after 24 hrs. It is filed as ADME, organism-based. The conditions noted are these: in vivo.
Series [17] in a line: Metabolic stability in mouse liver microsomes assessed as parent compound remaining measured after 30 mins. It is filed as ADME, Microsome. To be noted: read-out: Stabilty.
Series [18] in a line: Clearance in mouse at 5 mg/kg, iv measured after 24 hrs. It is filed as ADME, organism-based. The conditions noted are these: in vivo.
Series [19] in a line: Half life in mouse at 5 mg/kg, iv measured after 24 hrs. To be noted: in vivo. It is filed as ADME, organism-based.
For a further series, the system named is 4T1. Nature of the series: Anti-metastasis activity in mouse 4T1 cells xenografted in BALB/cAnCr mouse at 100 mg/kg, po administered for 16 days. It is filed as functional, organism-based. To be noted: time 16.0 day.
Series [20] in a line: AUC(t) in mouse at 5 mg/kg, po measured after 24 hrs. Type of series: ADME, organism-based. Also noted: route oral, time 24 hrs, dose 5 mg/kg. To be noted: in vivo.
A short description of series [21]: AUC(infinity) in mouse at 5 mg/kg, iv measured after 24 hrs. Type of series: ADME, organism-based. Further details: route intravenous, time 24 hrs, dose 5 mg/kg. The conditions noted are these: in vivo.

Activity calls are given as the source filed them. The calls are words filed in the database; no cut-off is given here. Bounds are passed on as bounds.

Sequence of CYP2C19 (P33261 whole entry): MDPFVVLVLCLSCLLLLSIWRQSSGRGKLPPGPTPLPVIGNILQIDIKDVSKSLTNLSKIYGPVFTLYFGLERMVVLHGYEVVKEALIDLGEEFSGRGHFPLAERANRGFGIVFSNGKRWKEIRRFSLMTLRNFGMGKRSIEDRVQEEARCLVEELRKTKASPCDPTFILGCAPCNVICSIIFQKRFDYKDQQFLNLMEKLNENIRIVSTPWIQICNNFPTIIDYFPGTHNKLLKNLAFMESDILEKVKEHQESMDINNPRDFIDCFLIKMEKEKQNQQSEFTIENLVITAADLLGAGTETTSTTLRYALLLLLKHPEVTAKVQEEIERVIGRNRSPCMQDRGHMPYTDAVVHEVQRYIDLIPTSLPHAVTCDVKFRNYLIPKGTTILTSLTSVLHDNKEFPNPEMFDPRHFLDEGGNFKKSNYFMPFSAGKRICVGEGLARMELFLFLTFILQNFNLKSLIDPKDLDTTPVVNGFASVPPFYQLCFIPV
Sequence of CYP3A4 (P08684 whole entry): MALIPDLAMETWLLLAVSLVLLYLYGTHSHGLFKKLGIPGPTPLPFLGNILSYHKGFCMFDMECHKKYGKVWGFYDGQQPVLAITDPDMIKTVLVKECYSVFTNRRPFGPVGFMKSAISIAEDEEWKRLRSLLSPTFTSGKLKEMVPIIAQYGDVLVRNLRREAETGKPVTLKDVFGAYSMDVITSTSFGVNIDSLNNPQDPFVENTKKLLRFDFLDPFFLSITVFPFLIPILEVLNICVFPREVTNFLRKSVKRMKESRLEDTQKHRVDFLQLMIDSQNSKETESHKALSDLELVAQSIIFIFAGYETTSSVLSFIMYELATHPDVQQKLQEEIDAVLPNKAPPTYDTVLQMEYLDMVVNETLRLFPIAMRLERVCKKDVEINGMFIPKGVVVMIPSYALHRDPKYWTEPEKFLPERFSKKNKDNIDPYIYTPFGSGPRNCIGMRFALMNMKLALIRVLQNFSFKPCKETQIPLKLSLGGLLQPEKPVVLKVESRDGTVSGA
Sequence of CYP2C9 (P11712 whole entry): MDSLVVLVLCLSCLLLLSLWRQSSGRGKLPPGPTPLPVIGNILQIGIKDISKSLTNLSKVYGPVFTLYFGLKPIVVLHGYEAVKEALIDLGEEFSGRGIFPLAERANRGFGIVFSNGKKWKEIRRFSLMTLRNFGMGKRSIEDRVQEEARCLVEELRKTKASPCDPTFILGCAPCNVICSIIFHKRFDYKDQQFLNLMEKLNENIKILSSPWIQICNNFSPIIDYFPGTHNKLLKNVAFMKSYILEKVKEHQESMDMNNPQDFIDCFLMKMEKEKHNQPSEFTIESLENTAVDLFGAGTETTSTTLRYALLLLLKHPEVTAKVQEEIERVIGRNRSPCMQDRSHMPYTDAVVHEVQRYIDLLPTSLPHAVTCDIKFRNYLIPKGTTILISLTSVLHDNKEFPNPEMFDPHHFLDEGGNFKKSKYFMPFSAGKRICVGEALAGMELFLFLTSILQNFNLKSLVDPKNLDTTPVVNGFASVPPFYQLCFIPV
Sequence of CYP2D6 (P10635 whole entry): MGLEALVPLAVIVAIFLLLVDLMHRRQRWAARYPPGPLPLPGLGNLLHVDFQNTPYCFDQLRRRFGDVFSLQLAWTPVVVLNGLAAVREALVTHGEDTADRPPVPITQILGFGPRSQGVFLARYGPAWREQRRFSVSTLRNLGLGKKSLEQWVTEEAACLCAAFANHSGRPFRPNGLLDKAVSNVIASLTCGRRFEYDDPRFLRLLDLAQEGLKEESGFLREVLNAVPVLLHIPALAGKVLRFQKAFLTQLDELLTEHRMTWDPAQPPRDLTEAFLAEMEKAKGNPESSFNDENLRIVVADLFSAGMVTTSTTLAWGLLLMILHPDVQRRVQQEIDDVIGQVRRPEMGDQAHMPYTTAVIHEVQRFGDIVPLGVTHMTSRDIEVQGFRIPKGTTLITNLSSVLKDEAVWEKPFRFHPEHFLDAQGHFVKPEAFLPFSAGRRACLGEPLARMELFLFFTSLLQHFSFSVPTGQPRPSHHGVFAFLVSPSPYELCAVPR

As to `CC(=O)N1CCN(c2ccc(OCC3COC(Cn4ccnc4)(c4ccc(Cl)cc4Cl)O3)cc2)CC1` (centres undefined) [KETOCONAZOLE], the activity at 10 µM at CYP1A2 was above 100%; on CYP2C9, above 100%; on CYP3A4, 31.8%; at CYP2C19, above 100%.
Consider `COc1ccc(CCN(Cc2ccc(C(=O)O)cc2)c2nc3cc(Cl)cnc3s2)cc1`, for which, in the series with MDA-MB-231 [1], the Activity entry is “inactive”.
Take `Cc1cc(=O)n(-c2ccccc2)n1C` [ANTIPYRINE]: the Papp at 4 h, 50 µM in series [2] was found to be 1.94 ×10⁻⁶ cm/s.
Regarding `COc1ccc(CCN(Cc2ccc(C(=O)O)cc2)c2nc3ccc[n+]([O-])c3s2)cc1`, the Activity result in the series on MDA-MB-231 [1] is “inactive”.
For orientation: EC50 means the concentration giving half of the maximal effect. The Kd is a measure of binding affinity in units of concentration. A low value points to a tighter complex. Regarding `CCC(C(=O)O)n1/c(=N/C(=O)c2cccc(C(F)(F)F)c2)sc2cc(F)c(F)cc21` (centres undefined), the EC50 in the series on NCI-H226 is 8.5 µM. Also, binding on Lysine--tRNA ligase [3] was put at a Kd of 49.2 µM. The Activity entry on Lysine--tRNA ligase [4] is “Active”.
Consider `COc1ccc(CCN(Cc2ccc(C(=O)O)cc2)c2nc3cc(F)cc(F)c3[nH]2)cc1`, for which the Activity entry with MDA-MB-231 [1] was “inactive”.
Turning to `COc1ccc(CCN(Cc2ccc(C(=O)O)cc2)c2nc3ccc(CO)cc3s2)cc1`, the Activity entry with MDA-MB-231 [1] was “inactive”.
For the compound `COc1ccc(CCN(Cc2ccc(C(=O)O)cc2)c2nc3ccc(C(=O)O)cc3s2)cc1`, the Activity entry in the series on MDA-MB-231 [1] is “inactive”.
With `COc1ccc(CCN(Cc2ccc(C(=O)O)cc2)c2nc3cnccc3s2)cc1`, the Activity entry in the series with MDA-MB-231 [1] is “inactive”.
Regarding `COc1ccc(CCN(Cc2ccc(C(=O)O)cc2)c2nc3ncccc3s2)cc1`, the Activity entry in the series with MDA-MB-231 [1] was “inactive”.
On the same count and under the same terms, the result for `COc1ccc(CCN(Cc2ccc(C(=O)O)cc2)c2nc3cccnc3o2)cc1` reads “Active”; that for `COc1ccc(CCN(Cc2ccc(C(=O)O)cc2)c2nc3cc(NC(=O)Cc4ccc(OC)cc4)ccc3o2)cc1`, “Active”.
For orientation: half-life means the time in which the quantity being followed falls by half. Usually Cmax stands for the peak of the concentration-time curve. For orientation: AUC(0-inf) means total exposure, with the tail of the curve extrapolated. For orientation: AUC(0-t) means exposure summed from dosing to a finite time, without extrapolation to infinity. Higher therefore signals high exposure. As usually defined, the Tmax is the time at which the peak concentration occurs. In general, bioavailability refers to dose-corrected exposure relative to a reference, in per cent. A lower bioavailability goes with poor availability. Usually clearance stands for the rate of elimination divided by the concentration. By inhibition is commonly meant the share of the control response that was lost under treatment. On to `COc1ccc(CCN(Cc2ccc(C(=O)O)cc2)c2nc3cccnc3s2)cc1`, for which the results for the half-life in series [5] and in series [19] were 1.56 h and 6.05 h, respectively. The compound also displayed a Cmax in series [6] of 40 ng/mL. Besides, the AUC(0-inf) in series [7] came to 192 ng·h/mL; in series [21], 216 ng·h/mL. Besides, the activity at 10 µM on CYP1A2 amounted to 91.1%; on CYP2C9 it was 74.6%; at CYP2D6, 97.9%; on CYP3A4, 98.4%; at CYP2C19, 92.2%. Also, the remaining at 0.5 h in series [8] came out at 79.5%; in series [11], 73%; in series [13], 62.8%; in series [17], 65.8%. For the same compound, the Papp at 4 h, 50 µM in series [2] turned out to be 22.2 ×10⁻⁶ cm/s. Besides, the AUC(0-t) at 24 h in series [9] stood at 191 ng·h/mL; in series [20], 168 ng·h/mL. The Vd in series [10] worked out at 149 L/kg. Besides, the Activity result in series [12] is “Non-Toxic”. The same compound yielded a Kd at Lysine--tRNA ligase [3] of 5.75 µM. For the same compound, the Activity result at Lysine--tRNA ligase [4] and in the series with 4T1 was “Active” in each case. In addition, the EC50 in the series on MDA-MB-231 [14] was found to be 0.081 µM. Further, the Tmax in series [15] turned out to be 4.17 h. This compound also had a bioavailability in series [16] of 87.9%. In [18], this compound showed a clearance of 392 mL/min/kg. In the series with MDA-MB-231 [1], the inhibition at 3 µM was found to be 70%.
With `COc1ccc(CCN(Cc2ccc(C(=O)O)cc2)c2nc3cncnc3s2)cc1`, in the series on MDA-MB-231 [1], the Activity entry is “inactive”.
Take `COc1ccc(CCN(Cc2ccc(C(=O)O)cc2)c2nc3ccccc3o2)cc1`: the Activity result in the series on MDA-MB-231 [1] was “Active”.
On to `COc1ccc(CCN(Cc2ccc(C(=O)O)cc2)c2nc3cc([N+](=O)[O-])ccc3o2)cc1`, for which the Activity entry in the series on MDA-MB-231 [1] is “Active”.
Regarding `COc1ccc(CCN(Cc2ccc(C(=O)O)cc2)c2nc3cc(NC(=O)c4ccc(N5CCN(C)CC5)cc4)ccc3o2)cc1`, the Activity result in the series on MDA-MB-231 [1] is “inactive”.
Regarding `COc1ccc(CCN(Cc2ccc(C(=O)O)cc2)c2nc3cc(F)c(F)c(F)c3s2)cc1`, the inhibition at 3 µM in the series on MDA-MB-231 [1] was determined as 28%.
